# Test results reported in PubChem BioAssay (NCI).
# Where “and” joins values, the source holds several entries; their conditions need not be identical. Identical values can stand only once.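 Method: 48-hour compound exposure of cells in 96-well plates, five concentrations, linear interpolation of endpoints. GI50 = concentration required for 50% inhibition of growth. TGI is the concentration that stops growth completely.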
# Experiments:
# Assay in all cases: growth of human tumour cells (NCI), 48 h
# NCI-H226 lung = test system: NCI-H226 lung
# 786-0 renal = test system: 786-0 renal
# RXF 393 renal = test system: RXF 393 renal
# UO-31 renal = test system: UO-31 renal
# K-562 leukemia = test system: K-562 leukemia
# UACC-62 melanoma = test system: UACC-62 melanoma
# SK-MEL-28 melanoma = test system: SK-MEL-28 melanoma
# MCF7 breast = test system: MCF7 breast
# MDA-MB-435 = test system: MDA-MB-435
# ACHN renal = test system: ACHN renal
Compound,TGI (NCI-H226 lung) [µM],TGI (786-0 renal) [µM],TGI (RXF 393 renal),TGI (UO-31 renal) [µM],TGI (K-562 leukemia),TGI (UACC-62 melanoma) [µM],TGI (SK-MEL-28 melanoma) [µM],TGI (MCF7 breast) [µM],TGI (MDA-MB-435),TGI (ACHN renal) [µM],GI50 (NCI-H226 lung) [µM],GI50 (786-0 renal),GI50 (RXF 393 renal),GI50 (UO-31 renal) [µM],GI50 (K-562 leukemia),GI50 (UACC-62 melanoma) [µM],GI50 (SK-MEL-28 melanoma),GI50 (MCF7 breast) [µM],GI50 (MDA-MB-435),GI50 (ACHN renal)
COc1cccc(C2c3cc4c(cc3OC(N3CCCC3)C2C)OCO4)c1O (centres undefined),35.6,> 100,17.4 µM,46.7,57.8 µM,43.7,81.1,> 83.6,4.61 µM,> 88.7,,,,,,,,,,
O=C1/C(=C\c2ccccn2)c2ccccc2N1c1c(Cl)cccc1Cl,3.42,3.49,2.73 µM,3.11,> 100 µM,3.68,4.03,14.3,5.03 µM,3.91,1.7,1.84 µM,1.4 µM,1.47,3.89 µM,1.62,1.84 µM,2.41,1.93 µM,1.82 µM
O=c1c(Cl)c(Cl)c(=O)c2sc3cc(Cl)ccc3[nH]c1=2,> 100,> 100,> 100 µM,36,34.6 µM,> 100,> 100,> 100,> 100 µM,> 100,,,,,,,,,,
CC1(CCC(=O)OC2CCCCC2)OCCO1,> 100,> 100,> 100 µM,> 100,> 100 µM,> 100,> 100,> 100,> 100 µM,> 100,,,,,,,,,,
CC(C)(C)[Si](C)(C)OC1[C@@H](O[Si](C)(C)C(C)(C)C)[C@@H](CNC(=O)NC(=O)CCl)O[C@H]1n1cnc2c(NC(=O)Nc3ccccc3)ncnc21 (some centres undefined),1.3,0.633,1.27 µM,0.2,3.38 µM,1.6,1.69,1.62,1.75 µM,1.54,0.651,0.31 µM,0.614 µM,0.0763,1.09 µM,0.793,0.916 µM,0.76,0.835 µM,0.782 µM
O=Cc1ccc(-c2ccc(-c3nc4ccccc4o3)cc2)o1,> 100,92.8,54.5 µM,68.5,> 100 µM,63.3,> 100,> 100,> 100 µM,58.2,17.9,24.4 µM,22.6 µM,22.7,23.6 µM,21.7,64.5 µM,14.8,33.1 µM,21.1 µM
Cc1cc(CC(C)CC(C)(C)C)n(O)c(=O)c1 (centres undefined) (tested in a mixture with another compound),10.4,5.7,6.53 µM,7.01,15.2 µM,1.08,> 63.2,> 43,24.9 µM,> 37.6,0.435,1.8 µM,0.372 µM,0.379,0.258 µM,0.305,0.548 µM,0.401,0.559 µM,0.385 µM
Cc1cc(C)c(Cn2cnc3c(Cl)ncnc32)c(C)c1CCl,> 100,> 100,> 100 µM,> 100,> 100 µM,> 100,,> 100,> 100 µM,14.1,> 100,> 100 µM,> 100 µM,> 100,44.2 µM,61.3,,30.5,> 100 µM,0.233 µM
Nc1ccn(C2OC(COC(=O)C34CC5CC(CC(C5)C3)C4)C(O)C2O)c(=O)n1 (centres undefined),> 100,> 100,> 100 µM,> 100,> 100 µM,> 100,> 100,> 100,> 100 µM,> 100,,,,,,,,,,
CN(Cc1cc(Cl)cc(Cl)c1)CC(C(=O)c1ccccc1)c1ccccc1 (centres undefined),22.4,10.4,> 25.6 µM,19.9,> 100 µM,14.3,9.8,> 44.1,16 µM,2.16,,,,,,,,,,
Cc1nc(N2CCC3(CC2)CO[C@@H](C)[C@H]3N)c(CO)nc1Sc1ccnc(N)c1Cl,> 100,> 100,> 30.6 µM,> 100,> 100 µM,> 100,> 100,> 100,> 100 µM,> 100,2.14,12.8 µM,2.53 µM,0.973,0.305 µM,> 100,> 100 µM,> 92.4,> 100 µM,4.81 µM
COc1ccc(-c2c3c(n(C4OC(COC(C)=O)C(OC(C)=O)C(OC(C)=O)C4OC(C)=O)c(=S)c2C#N)CC(C)(C)CC3=O)cc1 (centres undefined),> 100,> 100,71.8 µM and > 100 µM,> 100,39.9 µM and > 100 µM,> 100,> 100,> 100,65.6 µM and > 100 µM,> 100,,36.3 µM and > 100 µM,20.2 µM and > 100 µM,,18.2 µM and 47.5 µM,,42 µM and > 100 µM,,22.5 µM and 71.7 µM,46.2 µM and > 100 µM
COc1cccc(/C=C/C(=O)c2ccc(Cl)cc2Cl)c1,25.7,40.7,20.5 µM,> 50,26.9 µM,15.5,30.2,47.1,28.6 µM,39.2,9.79,12.8 µM,9.44 µM,17.4,3.22 µM,8.06,12.9 µM,7.84,11.1 µM,14.3 µM
OCC(O)c1nc2ccc3[nH]ncc3c2c2c1CCCC2 (centres undefined),2.83,> 50,1.45 µM,> 50,> 50 µM,2.73,3.76,> 50,4.31 µM,> 50,0.971,1.77 µM,0.612 µM,1.55,1.91 µM,0.96,1.22 µM,0.931,1.42 µM,1.13 µM
